According to patent US8975442B2, “Process for the preparation of and crystalline forms of optical enantiomers of modafinil” (Teva Sante, priority 2002, dated 2015):

Columns and labels:
Type in all cases: physicochemical
[1] = Solubility of modafinil acid in ethanol
Source text: Solubility of the Racemic Mixture in Ethanol:

[2] = Solubility of modafinil acid in 2-methoxyethanol
Source text: Solubility of the Racemic Mixture in 2-Methoxyethanol: […]

[3] = Solubility of modafinil acid in methanol
Source text: Solubility of the Racemic Mixture in Methanol:

SMILES | Solubility by mass ([1]; 10.0 °C) | ratio α (ratio of solubilities s(±)/s(+)) ([1]; 20 °C) | Solubility by mass ([1]; 20.0 °C) | Solubility by mass ([1]; 30.0 °C) | Solubility by mass ([2]; 10.0 °C) | ratio α (ratio of solubilities s(±)/s(+)) ([2]; 20 °C) | Solubility by mass ([2]; 20.0 °C) | Solubility by mass ([2]; 30.0 °C) | Solubility by mass ([2]; 40.0 °C) | Solubility by mass ([3]; 10.0 °C) | ratio α (ratio of solubilities s(±)/s(+)) ([3]; 20 °C) | Solubility by mass ([3]; 20.0 °C) | Solubility by mass ([3]; 30.0 °C) | Solubility by mass ([3]; 40.0 °C)
O=C(O)C[S+]([O-])C(c1ccccc1)c1ccccc1 (racemic) [(±)-modafinil acid, (±)-benzhydrylsulphinylacetic acid] | 3.0% | 2.06 | 4.1% | 5.96% | 7.4% | 2.53 | 8% | 13.5% | 16% | 7.4% | 2.53 | 9.7% | 13.9% | 25.7%
O=C(O)C[S+]([O-])C(c1ccccc1)c1ccccc1 (single isomer, unassigned; (+)) [(+)-antipode] |  |  | 1.99% |  |  |  | 4% |  |  |  |  | 4.9% |  | 
